Assay results published in PubChem BioAssay (NCI).
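48-hour exposure; five concentrations; linearly interpolated endpoints. TGI marks complete inhibition of growth.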

Tests used:
Assay in all cases: growth of human tumour cells (NCI), 48 h
NCI/ADR-RES ovarian = system: NCI/ADR-RES ovarian
SN12C renal = system: SN12C renal
SK-MEL-5 melanoma = system: SK-MEL-5 melanoma
NCI-H23 lung = system: NCI-H23 lung
SK-OV-3 ovarian = system: SK-OV-3 ovarian
MDA-MB-435 = system: MDA-MB-435
HOP-92 NSCLC = system: HOP-92 NSCLC
SK-MEL-2 melanoma = system: SK-MEL-2 melanoma
ACHN renal = system: ACHN renal
BT-549 breast = system: BT-549 breast
SF-295 CNS = system: SF-295 CNS
OVCAR-8 ovarian = system: OVCAR-8 ovarian
NCI-H226 lung = system: NCI-H226 lung
786-0 renal = system: 786-0 renal
SK-MEL-28 melanoma = system: SK-MEL-28 melanoma
SR leukemia = system: SR leukemia
OVCAR-3 ovarian = system: OVCAR-3 ovarian
HCT-116 colon = system: HCT-116 colon
A498 renal = system: A498 renal
SF-539 CNS = system: SF-539 CNS
U251 CNS = system: U251 CNS
TK-10 renal = system: TK-10 renal
DU-145 prostate = system: DU-145 prostate
K-562 leukemia = system: K-562 leukemia
CCRF-CEM leukemia = system: CCRF-CEM leukemia
HT29 colon = system: HT29 colon
OVCAR-5 ovarian = system: OVCAR-5 ovarian
T-47D breast = system: T-47D breast
UO-31 renal = system: UO-31 renal
M14 melanoma = system: M14 melanoma
MOLT-4 leukemia = system: MOLT-4 leukemia
HOP-62 NSCLC = system: HOP-62 NSCLC
COLO 205 colon = system: COLO 205 colon
UACC-257 melanoma = system: UACC-257 melanoma
EKVX NSCLC = system: EKVX NSCLC
HCC-2998 colon = system: HCC-2998 colon
MALME-3M melanoma = system: MALME-3M melanoma
SW-620 colon = system: SW-620 colon
IGROV1 ovarian = system: IGROV1 ovarian
LOX IMVI melanoma = system: LOX IMVI melanoma
SNB-75 CNS = system: SNB-75 CNS
NCI-H460 lung = system: NCI-H460 lung
HCT-15 colon = system: HCT-15 colon
NCI-H522 lung = system: NCI-H522 lung
KM12 colon = system: KM12 colon
SF-268 CNS = system: SF-268 CNS
RPMI-8226 leukemia = system: RPMI-8226 leukemia
MCF7 breast = system: MCF7 breast
SNB-19 CNS = system: SNB-19 CNS
RXF 393 renal = system: RXF 393 renal
HL-60(TB) leukemia = system: HL-60(TB) leukemia
OVCAR-4 ovarian = system: OVCAR-4 ovarian
UACC-62 melanoma = system: UACC-62 melanoma
MDA-MB-231 breast = system: MDA-MB-231 breast
HS 578T breast = system: HS 578T breast
A549 NSCLC = system: A549 NSCLC

## O=C1CCCc2ccc3c(c21)CC1(Cc2cc4c(cc2C1)CCCC4)C3
NCI/ADR-RES ovarian
  TGI: > 100 µM
SN12C renal
  TGI: 54.2 µM
SK-MEL-5 melanoma
  TGI: 26.2 µM
NCI-H23 lung
  TGI: 49 µM
SK-OV-3 ovarian
  TGI: > 100 µM
MDA-MB-435
  TGI: 46.7 µM
HOP-92 NSCLC
  TGI: 28 µM
SK-MEL-2 melanoma
  TGI: 48.9 µM
ACHN renal
  TGI: 30 µM
BT-549 breast
  TGI: 72.6 µM
SF-295 CNS
  TGI: 75.7 µM
OVCAR-8 ovarian
  TGI: 47.4 µM
NCI-H226 lung
  TGI: 93.3 µM
786-0 renal
  TGI: 33 µM
SK-MEL-28 melanoma
  TGI: 63.7 µM
SR leukemia
  TGI: 31.5 µM
OVCAR-3 ovarian
  TGI: 40.3 µM
HCT-116 colon
  TGI: 34.6 µM
A498 renal
  TGI: > 100 µM
SF-539 CNS
  TGI: 48.7 µM
U251 CNS
  TGI: 44.4 µM
TK-10 renal
  TGI: 46.2 µM
DU-145 prostate
  TGI: > 100 µM
K-562 leukemia
  TGI: 25.1 µM
CCRF-CEM leukemia
  TGI: 16 µM
HT29 colon
  TGI: 50.9 µM
OVCAR-5 ovarian
  TGI: 72.3 µM
T-47D breast
  TGI: 23.2 µM
UO-31 renal
  TGI: 32.4 µM
M14 melanoma
  TGI: 33.2 µM
MOLT-4 leukemia
  TGI: 37.4 µM
HOP-62 NSCLC
  TGI: 57.1 µM
COLO 205 colon
  TGI: 31.1 µM
UACC-257 melanoma
  TGI: 47.8 µM
EKVX NSCLC
  TGI: 81.9 µM
HCC-2998 colon
  TGI: > 100 µM
MALME-3M melanoma
  TGI: 35.8 µM
SW-620 colon
  TGI: 41.7 µM
IGROV1 ovarian
  TGI: 54.6 µM
LOX IMVI melanoma
  TGI: 28.5 µM
SNB-75 CNS
  TGI: 65.1 µM
NCI-H460 lung
  TGI: 74.5 µM
HCT-15 colon
  TGI: 61.3 µM
NCI-H522 lung
  TGI: 35.5 µM
KM12 colon
  TGI: 66.3 µM
SF-268 CNS
  TGI: 77.1 µM
RPMI-8226 leukemia
  TGI: 35.5 µM
MCF7 breast
  TGI: 56.7 µM
SNB-19 CNS
  TGI: 91.7 µM
RXF 393 renal
  TGI: 32 µM
HL-60(TB) leukemia
  TGI: 26.3 µM
OVCAR-4 ovarian
  TGI: 50.9 µM
UACC-62 melanoma
  TGI: 49.2 µM
MDA-MB-231 breast
  TGI: 38.2 µM
HS 578T breast
  TGI: 81.4 µM
A549 NSCLC
  TGI: > 100 µM
